Read-outs that look alike come from different tables or passages of the source.

For this test, the target named is Human recombinant Histone Deacetylase 8 (HDAC8) (Homo sapiens (Human), UniProt Q9BY41). The experiment in a line: HDAC8 Enzymatic Assay (HDAC-Glo I/II luminescence). Type of test: biochemical. The method, then: HDAC-Glo™ I/II Assay Kit was purchased from Promega Corporation (Madison, Wis.), including the following components: HDAC-Glo I/II Buffer (25 mM Tris buffer, pH 8.0, supplemented with 137 mM: NaCl, 2.7 mM KCl, 1% v/v Triton X-100 and 1 mM: MgCl2), luminogenic substrates Boc-GAK(Ac)-aminoluciferin (HDAC-Glo I/II substrate), proprietary developer reagent (containing trypsin). Human recombinant Histone Deacetylase 8 (HDAC8) was purchased from Enzo Life Sciences (Plymouth Meeting, Pa.).
Sequence of Human recombinant Histone Deacetylase 8 (HDAC8) (Q9BY41 whole entry): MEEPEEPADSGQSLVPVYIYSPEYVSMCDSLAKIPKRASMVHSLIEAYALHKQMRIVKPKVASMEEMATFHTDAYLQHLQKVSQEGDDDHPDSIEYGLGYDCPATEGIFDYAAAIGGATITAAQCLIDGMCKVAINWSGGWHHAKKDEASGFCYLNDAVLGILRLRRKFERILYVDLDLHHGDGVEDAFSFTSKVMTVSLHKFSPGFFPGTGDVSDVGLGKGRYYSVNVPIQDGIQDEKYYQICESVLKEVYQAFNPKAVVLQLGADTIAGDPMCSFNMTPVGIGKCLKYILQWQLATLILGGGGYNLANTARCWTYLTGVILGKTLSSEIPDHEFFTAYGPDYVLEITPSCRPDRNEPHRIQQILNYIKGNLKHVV
The HDAC8 reaction was performed at room temperature in white 384-well polystyrene, flat-bottom microtiter plate (Greiner Bio-one, Monroe, N.C.) in a final volume of 20 μL. Test compounds were first diluted serially in DMSO and 100 nL were transferred to the plate wells by Echo 550 (Labcyte, Sunnyvale, Calif.) before the addition of other reaction components. The final concentration of DMSO in the assay was 0.5%. The HDAC-Glo I/II assay reagent was prepared by rehydration of lyophilized HDAC-Glo I/II substrate in 10 mL. HDAC-Glo I/II assay buffer followed with the addition of 10 μL of developer reagent. 10 uL of 3 nM HDAC8 in the HDAC-Glo I/II assay buffer were first dispensed into the microliter plate containing the compounds and incubated at room temperature for 30 min. The reactions were initiated with the addition of 10 uL HDAC-Glo I/II assay reagent with Multidrop (Thermo, Waltham, Mass.). The final concentration of HDAC8 and HDAC-Glo I/II substrate in the reaction were 1.5 nM and 50 μM, respectively. The assay plate was mixed for 1 min by orbital shaking (500 rpm) and centrifuged for 1 min at 1500 rpm. After 15 min at room temperature, luminescence signals were measured on TopCount (Perkin Elmer). Wells with no compound served as the positive controls and wells containing no HDAC8 were used as negative controls. IC50 determination was performed by fitting the curve of percentage control activity versus the log of the compound concentration using the GraphPad Prism 6.0 software.

Setting [1] is: class symbols, Table 14, read-out: HDAC8 IC50.

As usually defined, the IC50 is the midpoint of a concentration-inhibition curve. On to `O=C(NO)C(Cc1ccccc1)n1ncc2cc(Cl)ccc21` (centres unmarked) [Compound I-0001, 2-(5-Chloro-1H-indazol-1-yl)-N-hydroxy-3-phenylpropanamide], for which the IC50 runs as follows: (HDAC8, read-out: IC50) 141 nM; under setting [1], 50 to 200 nM.

As for `O=C(NO)C(Cc1ccccc1)n1cc2ccccc2n1` (centres unmarked) [Compound I-0002, N-hydroxy-2-(2H-indazol-2-yl)-3-phenylpropanamide], the IC50 under setting [1] is 200 to 500 nM.

For the compound `O=C(NO)C(Cc1ccccc1)n1cc2cc(Cl)ccc2n1` (centres unmarked) [Compound I-0003, 2-(5-Chloro-2H-indazol-2-yl)-N-hydroxy-3-phenylpropanamide], the IC50 is 338 nM (HDAC8, read-out: IC50) and 200 to 500 nM under setting [1].

On to `O=C(NO)C(Cc1ccccc1)n1cc2ccc(Br)cc2n1` (centres unmarked) [Compound I-0004, 2-(6-bromo-2H-indazol-2-yl)-N-hydroxy-3-phenylpropanamide], for which the half-maximal inhibitory concentration (IC50) under setting [1] lay within 200 to 500 nM.

For the compound `O=C(NO)C(Cc1ccccc1)n1nc2ccc(Cl)cc2c1C#CC1CC1` (centres unmarked) [Compound I-0005, 2-[5-Chloro-3-(cyclopropylethynyl)-2H-indazol-2-yl]-N-hydroxy-3-phenylpropanamide], the IC50 is 22 nM (HDAC8, read-out: IC50) and no more than 50 nM under setting [1].

As to `O=C(NO)C(Cc1ccccc1)n1cc2ccc(-c3ccccc3)cc2n1` (centres unmarked) [Compound I-0006, N-hydroxy-3-phenyl-2-(6-phenyl-2H-indazol-2-yl)propanamide], the IC50 under setting [1] is 200 to 500 nM.

With `O=C(NO)C(Cc1ccccc1)n1cc2ccc(-c3cncnc3)cc2n1` (centres unmarked) [Compound I-0007, N-hydroxy-3-phenyl-2-(6-(pyrimidin-5-yl)-2H-indazol-2-yl)propanamide], under setting [1], the IC50 is 200 to 500 nM.

Take `O=C(NO)C(Cc1ccccc1)n1cc2ccc(-c3cccnc3)cc2n1` (centres unmarked) [Compound I-0008, N-hydroxy-3-phenyl-2-(6-(pyridin-3-yl)-2H-indazol-2-yl)propanamide]: the IC50 under setting [1] was in the range of 200 to 500 nM.

As to `O=C(NO)C(Cc1ccccc1)n1nc(C#CC2CC2)c2cc(Cl)ccc21` (centres unmarked) [Compound I-0009, 2-(5-chloro-3-(cyclopropylethynyl)-1H-indazol-1-yl)-N-hydroxy-3-phenylpropanamide], under setting [1], the IC50 fell in the range of 50 to 200 nM.

With `Cn1nccc1-c1ccc2c(cnn2C(Cc2ccccc2)C(=O)NO)c1` (centres unmarked) [Compound I-0010, N-hydroxy-2-(5-(1-methyl-1H-pyrazol-5-yl)-1H-indazol-1-yl)-3-phenylpropanamide], the IC50 under setting [1] fell in the range of 50 to 200 nM.

Take `O=C(NO)C(Cc1ccccc1)n1ncc2cc(-c3ccncc3)ccc21` (centres unmarked) [Compound I-0011, N-hydroxy-3-phenyl-2-(5-pyridin-4-yl-1H-indazol-1-yl)propanamide]: the IC50 reads like this: (HDAC8, read-out: IC50) 87 nM; under setting [1], 50 to 200 nM.

Consider `O=C(NO)C(Cc1ccccc1)n1ncc2cc(-c3cncnc3)ccc21` (centres unmarked) [Compound I-0012, N-hydroxy-3-phenyl-2-(5-(pyrimidin-5-yl)-1H-indazol-1-yl)propanamide], for which, under setting [1], the IC50 lay in the range of 50 to 200 nM.

For the compound `O=C(NO)C(Cc1ccccc1)n1ncc2cc(-c3ccccc3)ccc21` (centres unmarked) [Compound I-0013, N-hydroxy-3-phenyl-2-(5-phenyl-1H-indazol-1-yl)propanamide], under setting [1], the IC50 fell in the range of 200 to 500 nM.

As to `O=C(NO)C(Cc1ccccc1)n1ncc2cc(-c3c(F)cccc3F)ccc21` (centres unmarked) [Compound I-0014, 2-(5-(2,6-difluorophenyl)-1H-indazol-1-yl)-N-hydroxy-3-phenylpropanamide], the IC50 under setting [1] was in the range of 200 to 500 nM.

On to `N#Cc1ccc(-c2ccc3c(cnn3C(Cc3ccccc3)C(=O)NO)c2)cc1` (centres unmarked) [Compound I-0015, 2-(5-(4-cyanophenyl)-1H-indazol-1-yl)-N-hydroxy-3-phenylpropanamide], for which, under setting [1], the IC50 is 200 to 500 nM.

`Cc1ccc2c(cnn2C(Cc2ccccc2)C(=O)NO)c1` (centres unmarked) [Compound I-0016, N-hydroxy-2-(5-methyl-1H-indazol-1-yl)-3-phenylpropanamide]: under setting [1], the IC50 lay in the range of 50 to 200 nM.

On to `O=C(NO)C(Cc1ccccc1)n1ncc2cc(Br)ccc21` (centres unmarked) [Compound I-0017, 2-(5-bromo-1H-indazol-1-yl)-N-hydroxy-3-phenylpropanamide], for which, under setting [1], the IC50 fell in the range of 50 to 200 nM.

Regarding `CCc1ccc2cnn(C(Cc3ccccc3)C(=O)NO)c2c1` (centres unmarked) [Compound I-0018, 2-(6-Ethyl-1H-indazol-1-yl)-N-hydroxy-3-phenylpropanamide], the IC50 is, setting by setting: (HDAC8, read-out: IC50) 443 nM; under setting [1], 200 to 500 nM.

Regarding `O=C(NO)C(Cc1ccccc1)n1ncc2cc(C3CC3)ccc21` (centres unmarked) [Compound I-0019, 2-(5-cyclopropyl-1H-indazol-1-yl)-N-hydroxy-3-phenylpropanamide], the IC50 under setting [1] is greater than 500 nM.

As to `CCc1ccc2c(cnn2C(Cc2ccccc2)C(=O)NO)c1` (centres unmarked) [Compound I-0020, 2-(5-ethyl-1H-indazol-1-yl)-N-hydroxy-3-phenylpropanamide], the IC50 under setting [1] was 200 to 500 nM.

In the case of `O=C(NO)C(Cc1ccccc1)n1ncc2ccc(Br)cc21` (centres unmarked) [Compound I-0021, 2-(6-bromo-1H-indazol-1-yl)-N-hydroxy-3-phenylpropanamide], under setting [1], the IC50 was greater than 500 nM.

Consider `O=C(NO)C(Cc1ccccc1)n1ncc2ccc(-c3ccccc3)cc21` (centres unmarked) [Compound I-0022, N-hydroxy-3-phenyl-2-(6-phenyl-1H-indazol-1-yl)propanamide], for which the IC50 under setting [1] is greater than 500 nM.

Turning to `O=C(NO)C(Cc1ccccc1)n1ncc2ccc(-c3cncnc3)cc21` (centres unmarked) [Compound I-0023, N-hydroxy-3-phenyl-2-(6-(pyrimidin-5-yl)-1H-indazol-1-yl)propanamide], under setting [1], the IC50 is greater than 500 nM.

On to `O=C(NO)C(Cc1ccccc1)n1cc2cc(Br)ccc2n1` (centres unmarked) [Compound I-0024, 2-(5-bromo-2H-indazol-2-yl)-N-hydroxy-3-phenylpropanamide], for which the IC50 under setting [1] is greater than 500 nM.

As to `O=C(NO)C(Cc1ccccc1)n1nc2ccc(-c3ccccc3)cc2c1C#CC1CC1` (centres unmarked) [Compound I-0025, 2-[3-(Cyclopropylethynyl)-5-phenyl-2H-indazol-2-yl]-hydroxy-3-phenylpropanamide], the IC50 is, setting by setting: (HDAC8, read-out: IC50) 134 nM; under setting [1], 50 to 200 nM.

For `NC(=O)c1ccc(-c2ccc3nn(C(Cc4ccccc4)C(=O)NO)c(C#CC4CC4)c3c2)cc1` (centres unmarked) [Compound I-0026, 4-(3-(cyclopropylethynyl)-2-(1-(hydroxyamino)-1-oxo-3-phenylpropan-2-yl)-2H-indazol-5-yl)benzamide], under setting [1], the IC50 is no more than 50 nM.

Regarding `O=C(NO)C(Cc1ccccc1)n1nc2ccc(-c3c(F)cccc3F)cc2c1C#CC1CC1` (centres unmarked) [Compound I-0027, 2-(3-(cyclopropylethynyl)-5-(2,6-difluorophenyl)-2H-indazol-2-yl)-N-hydroxy-3-phenylpropanamide], the IC50 under setting [1] lay in the range of 200 to 500 nM.

Turning to `Cn1nccc1-c1ccc2nn(C(Cc3ccccc3)C(=O)NO)c(C#CC3CC3)c2c1` (centres unmarked) [Compound I-0028, 2-(3-(cyclopropylethynyl)-5-(1-methyl-1H-pyrazol-5-yl)-2H-indazol-2-yl)-N-hydroxy-3-phenylpropanamide], under setting [1], the IC50 is no more than 50 nM.

In the case of `O=C(NO)C(Cc1ccccc1)n1nc2ccc(-c3ccncc3)cc2c1C#CC1CC1` (centres unmarked) [Compound I-0029, 2-(3-(cyclopropylethynyl)-5-(pyridin-4-yl)-2H-indazol-2-yl)-N-hydroxy-3-phenylpropanamide], under setting [1], the IC50 lay in the range of 50 to 200 nM.

On to `O=C(NO)C(Cc1ccccc1)n1nc2ccc(-c3cncnc3)cc2c1C#CC1CC1` (centres unmarked) [Compound I-0030, 2-(3-(cyclopropylethynyl)-5-(pyrimidin-5-yl)-2H-indazol-2-yl)-N-hydroxy-3-phenylpropanamide], for which, under setting [1], the IC50 is no more than 50 nM.

Turning to `COc1ncc(-c2ccc3nn(C(Cc4ccccc4)C(=O)NO)c(C#CC4CC4)c3c2)cn1` (centres unmarked) [Compound I-0031, 2-(3-(cyclopropylethynyl)-5-(2-methoxypyrimidin-5-yl)-2H-indazol-2-yl)-N-hydroxy-3-phenylpropanamide], the IC50 under setting [1] is no more than 50 nM.

In the case of `Cc1ccc2nn(C(Cc3ccccc3)C(=O)NO)c(C#CC3CC3)c2c1` (centres unmarked) [Compound I-0032, 2-(3-(cyclopropylethynyl)-5-methyl-2H-indazol-2-yl)-N-hydroxy-3-phenylpropanamide], under setting [1], the IC50 was no more than 50 nM.

Regarding `N/C(=N\O)c1ccc(-c2ccc3nn(C(Cc4ccccc4)C(=O)NO)cc3c2)cc1` (centres unmarked) [Compound I-0033, (Z)-N-hydroxy-2-(5-(4-(N′-hydroxy-carbamimidoyl)phen-yl)-2H-indazol-2-yl)-3-phenylpropanamide], the IC50 under setting [1] lay within 50 to 200 nM.

Consider `Cn1nccc1-c1ccc2nn(C(Cc3ccccc3)C(=O)NO)cc2c1` (centres unmarked) [Compound I-0034, N-hydroxy-2-(5-(1-methyl-1H-pyrazol-5-yl)-2H-indazol-2-yl)-3-phenylpropanamide], for which the IC50 under setting [1] fell in the range of 200 to 500 nM.

As for `COc1ncc(-c2ccc3nn(C(Cc4ccccc4)C(=O)NO)cc3c2)cn1` (centres unmarked) [Compound I-0035, N-hydroxy-2-(5-(2-methoxypyrimidin-5-yl)-2H-indazol-2-yl)-3-phenylpropanamide], the IC50 under setting [1] was 200 to 500 nM.
